In patent publication US5532257A, “Benzothiazole compound, production thereof and use thereof” (Senju Pharmaceutical Co., Ltd, priority 1993, dated 1996):
Blank lines part the entries; values can stand above or below the compound they belong to.

Experiments:
[1] = system: Sorbitol accumulation in sciatic nerve; assay: Inhibitory action on sorbitol accumulation in tissues of rats with experimental (streptozotocin) diabetes: sciatic nerve; assay type: in vivo, Sprague-Dawley rats; details: % of control (control = 100%), measured 3 hours after final administration
Description: (§1) 2) Inhibitory action on sorbitol accumulation in tissues of rats with experimental diabetes
(§2) Test Drugs: Compound of the invention and EPALRESTAT (described in Japanese Patent Unexamined Publication No. 40478/1982)
(§3) Sprague-Dawley rats (male, 6 weeks old, 5-6 per group) were fasted for 18 hours and injected with streptozotocin (SIGMA, 60 mg/kg) via the tail vein under etherization to prepare rats with diabetes.
(§4) The various compounds were orally administered at 4, 8 and 24 hours after the injection of streptozotocin, at 10 mg/kg or 30 mg/kg as a 0.5% carboxymethylcellulose suspension. During the administrations, the rats were raised under free access to feed and water and the sorbitol content in the tissues (erythrocytes, sciatic nerve, lens) was determined 3 hours after the final administration, according to the enzyme method of H. Y. Bergmeyer et al. [Methods of Enzymatic Analysis, vol. 3, 1323-1330 (1974)]with the use of SDH (sorbitol dehydrogenase) and NAD (β-nicotinamide adenine dinucleotide). The results are expressed in percent (%) relative to the value of a control group administered with 0.5% carboxymethylcellulose solution (solvent) instead of the compound, which was taken as 100%.

[2] = system: Sorbitol accumulation in lens; assay: Inhibitory action on sorbitol accumulation in tissues of rats with experimental (streptozotocin) diabetes: lens; assay type: in vivo, Sprague-Dawley rats; details: % of control (control = 100%), measured 3 hours after final administration
Description: as §1, §2, §3, §4

[3] = system: Sorbitol accumulation in erythrocytes; assay: Inhibitory action on sorbitol accumulation in tissues of rats with experimental (streptozotocin) diabetes: erythrocytes; assay type: in vivo, Sprague-Dawley rats; details: % of control (control = 100%), measured 3 hours after final administration
Description: as §1, §2, §3, §4

ICR mice = details: mouse, in vivo
Description: The acute toxicity (safety) of the compound of the present invention was confirmed by the following method.
Normal ICR mice (male, 7 weeks old, 5 per group) were fasted for 18 hours and the compound (300 mg/kg) of Example 37 was orally administered as a 0.5% carboxymethylcellulose suspension. To the control group, a 0.5% carboxymethylcellulos e solution alone was orally administered and observation was continued for 14 days thereafter, during which period the mice were allowed to take feed and water freely.

aldose reductase = target: T1, aldose reductase (Sus scrofa, UniProt P80276); assay: Aldose reductase inhibitory action (swine lens enzyme, dl-glyceraldehyde substrate, NADPH, absorbance change at 340 nm); assay type: biochemical; details: 3 mM dl-glyceraldehyde, 0.1 mM NADPH, pH 6.2, 25° C., 2 minutes, read-out: IC50 (concentration inhibiting the aldose reductase activity by 50%)
T1 construct: swine lenses freeze-stored at -80° C. were homogenized with distilled water; from tissue; host or cells: swine lens
Description: That is, swine lenses freeze-stored at -80° C. were homogenized with distilled water and cetrifuged at 10,000 G for 15 minutes. The supernatant was prepared into a 40% ammonium sulfate solution and subjected to cetrifugation at 10,000 G for 10 minutes.
The activity of aldose reductase was determined by the above-mentioned method of S. Hayman et al. That is, the above-mentioned enzyme solution (25 μl) and a drug solution (25 μl) dissolved in 1% DMSO at various concentrations were added to a 40 mM phosphate buffer (200 μl, pH 6.2) containing final concentrations of 0.4 M lithium sulfate, 0.1 mM NADPH (reduced type nicotinamide adenine dinucleotide phosphate) and 3 mM dl-glyceraldehyde as a substrate.
The test drug number indicates the example number to be mentioned later.

[4] = 30 mg/kg oral at 4, 8 and 24 hours after streptozotocin
[5] = 10 mg/kg oral at 4, 8 and 24 hours after streptozotocin, ** p<0.01 (Tukey)
[6] = 10 mg/kg oral at 4, 8 and 24 hours after streptozotocin, * p<0.05, ** p<0.01 (Tukey)

SMILES: CC(/C=C1\SC(=S)N(CC(=O)O)C1=O)=C\c1ccccc1 [EPALRESTAT, reference compound]
Sorbitol accumulation, sciatic nerve [1, 4]: 99.9%
Sorbitol accumulation, lens [2, 4]: 89.1%
Sorbitol accumulation, erythrocytes [3, 4]: 66.5%

SMILES: O=C(O)CCC(=O)N(Cc1nc2c(F)c(F)cc(F)c2s1)c1ccc(Cl)cc1 [Example 37, N-(4-chlorophenyl)-N-[(4,5,7-trifluorobenzothiazol-2-yl)methyl]succinamic acid]
Sorbitol accumulation, sciatic nerve [1, 5]: 17.8%
death among the mice (ICR mice): no case of death
Sorbitol accumulation, lens [2, 6]: 55.4%
Sorbitol accumulation, erythrocytes [3, 5]: 16.4%

SMILES: O=C(O)CCC(=O)N(Cc1nc2c(F)c(F)cc(F)c2s1)c1ccccc1Cl [Example 48, N-(2-chlorophenyl)-N-[(4,5,7-trifluorobenzothiazol-2-yl)methyl]succinamic acid]
Sorbitol accumulation, sciatic nerve [1, 5]: 45.7%
Sorbitol accumulation, lens [2, 6]: 56.6%
Sorbitol accumulation, erythrocytes [3, 5]: 32.8%

SMILES: COc1ccc(N(Cc2nc3c(F)c(F)cc(F)c3s2)C(=O)CCC(=O)O)cc1 [Example 55, N-[(4,5,7-trifluorobenzothiazol-2-yl)methyl]-N-(4-methoxyphenyl)succinamic acid]
Sorbitol accumulation, sciatic nerve [1, 5]: 27.2%
Sorbitol accumulation, lens [2, 6]: 74.4%
Sorbitol accumulation, erythrocytes [3, 5]: 2.5%

Continued, in another order:

IC50 (aldose reductase): 13 nM
SMILES: O=C(O)CCC(=O)N(Cc1nc2c(Cl)c(Cl)ccc2s1)c1ccc(Cl)cc1 [Example 39, N-(4-chlorophenyl)-N-[(4,5-dichlorobenzothiazol-2-yl)methyl]succinamic acid]

IC50 (aldose reductase): 13 nM
SMILES: Cc1ccc(N(Cc2nc3c(F)c(F)cc(F)c3s2)C(=O)CCC(=O)O)cc1 [Example 41, N-[(4,5,7-trifluorobenzothiazol-2-yl)methyl]-N-(4-methylphenyl)succinamic acid]

IC50 (aldose reductase): 15 nM
SMILES: O=C(O)CCC(=O)N(Cc1nc2c(F)c(F)cc(F)c2s1)c1ccccc1 [Example 65, N-[(4,5,7-trifluorobenzothiazol-2-yl)methyl]-N-phenylsuccinamic acid]
Sorbitol accumulation, sciatic nerve [1, 5]: 4.0%
Sorbitol accumulation, lens [2, 6]: 71.8%
Sorbitol accumulation, erythrocytes [3, 5]: 6.4%

IC50 (aldose reductase): 13 nM
SMILES: CSc1ccccc1N(Cc1nc2c(F)c(F)cc(F)c2s1)C(=O)CCC(=O)O [Example 72, N-[(4,5,7-trifluorobenzothiazol-2-yl)methyl]-N-(2-methylthiophenyl)succinamic acid]
Sorbitol accumulation, sciatic nerve [1, 5]: 10.8%
Sorbitol accumulation, lens [2, 6]: 50.0%
Sorbitol accumulation, erythrocytes [3, 5]: 19.2%
